The values below are quoted from earlier work in patent US20260102363A1, “TREATMENT METHOD AND ANTIFUNGAL COMPOSITION” (MOBERG PHARMA AB, priority 2020, published 2026).

Data set [1] concerns DSO.
In data set [2] the test system is onychomycosis.
Where [3] appears, read: single reported study, hydrochloride.
[4] abbreviates: Study 1 of the prescribing information.
Setting [5] is: Study 2 of the prescribing information.

Structures can show the parent of a compound that is named as a salt. Where two headings read alike, the source gives them in different places.

On to `CN(C/C=C/C#CC(C)(C)C)Cc1cccc2ccccc12` [Terbinafine (P3058), Terbinafine], for which, in data set [1] (single reported study), the “Complete Cure (%)” value is 5.7% and the “Mycological Cure (%)” value is recorded as 20.4%.
Regarding `CN(C/C=C/C#CC(C)(C)C)Cc1cccc2ccccc12` [Terbinafine (oral) (LAMISIL ®), terbinafine hydrochloride], the mycological cure rate is approximately 15% in data set [2] (after 12 weeks), approximately 40% in data set [2] (at 24 weeks) and approximately 70% in data set [2] (at week 48/52). Moreover, the “Complete Cure (%)” value in data set [1] (setting [3]) was 38%. The “Mycological Cure (%)” value in data set [1] (setting [3]) was 70%.
As to `OB1OCc2cc(F)ccc21` [Tavaborole (KERYDIN ®), tavaborole], in data set [1] (setting [4]), the “Complete Cure (%)” value is recorded as 6.5% and the “Mycological Cure (%)” value was 31%. In data set [1] (setting [5]), the “Complete Cure (%)” value is given as 9.1% and the “Mycological Cure (%)” value is 35.9%.
In the case of `C=C1CCN([C@H](C)[C@](O)(Cn2cncn2)c2ccc(F)cc2F)CC1` [Efinaconazole (JUBLIA ®), efinaconazole], in data set [1] (setting [4]), the “Complete Cure (%)” value is on record as 15.2% and the “Mycological Cure (%)” value is 53.4%. Moreover, in data set [1] (setting [5]), the “Complete Cure (%)” value is 17.8% and the “Mycological Cure (%)” value was 55.2%.
On to `Cc1cc(C2CCCCC2)n(O)c(=O)c1` [Ciclopirox (Penlac ®), ciclopirox], for which, in data set [1] (setting [4]), the “Complete Cure (%)” value was 5.5% and the “Mycological Cure (%)” value is 29%. Further, in data set [1] (setting [5]), the “Complete Cure (%)” value is 8.5% and the “Mycological Cure (%)” value is on record as 36%.
On to `N#C/C(=C1/SC[C@@H](c2ccc(Cl)cc2Cl)S1)n1ccnc1` [Luliconazole], for which, in data set [1] (single reported study), the “Complete Cure (%)” value is reported as 14.9% and the “Mycological Cure (%)” value is given as 45.4%.
